How the values were obtained:
[1] = acute toxicity in mice (LD50); details: mouse, in vivo
Experimental: First of all, the compounds of the present invention are characterized by a low acute toxicity and a very favourable therapeutic index.
The compounds were administered by oral and intraperitoneal route.

[2] = tested on: sudden death induced by arachidonate in mice; test: protection against sudden death induced by arachidonate in mice; type: in vivo; details: oral; for increase of protection as compared with ASA: screening dosage 20 mg/kg vs ASA 200 mg/kg; for protection against sudden death compared with ASA: 20 mg/kg vs ASA 200 mg/kg
From the text: The same compounds from BBR-1507 to BBR-1513, given orally, protected against sudden death induced by arachidonate in mice.

Normotensive rats = test: hypotensive effect in conscious normotensive rats (Table 2); type: in vivo; details: os
From the text: (§1) As it is shown in Table 2, the decrease of the systolic median blood pressure was long lasting and the length of the effect was dose-related.

[3] = tested on: paw edema induced by carrageenin; test: paw edema induced by carrageenin; type: in vivo; details: 20, 60 and 200 mg/kg; for reducing the paw edema induced by carrageenin: oral route; for activity in paw edema relative to ASA: oral, more active than ASA
[4] = tested on: conscious normal and in spontaneously hypertensive rats; test: hypotensive effect in conscious normal and spontaneously hypertensive rats; type: in vivo
Experimental: This is particularly the case of compounds like as BBR-1511, 1513 and 1509 which show only a little (5-8 mmHg) even if prolonged hypotensive effect when tested in conscious normal and in spontaneously hypertensive rats at doses ranging from 100 to 200 mg/kg by intraperitoneal route.

SHR Rats = test: hypotensive effect in conscious spontaneously hypertensive rats (Table 2); type: in vivo; parameters: ΔBP sist: unit not given here
From the text: as §1

[5] = tested on: sudden death induced by arachidonate in mice; test: protection against sudden death induced by arachidonate in mice; details: vs ASA
[6] = tested on: platelet-rich plasma (PRP) from guinea pigs; test: in vitro platelet aggregation in platelet-rich plasma, Born aggregometer; type: cell-based; details: vs ASA
[7] = intraperitoneal and oral, conscious normotensive and SHR rats, qualitative
[8] = conscious normal and SHR rats, 100 to 200 mg/kg, intraperitoneal, prolonged

**Q.** Which LD50 ([1]; ip) does the source give for `CC(=O)Nc1ccc2c(c1)CC1CC(=O)NN=C21` (racemic) [BBR-1507, dl-7-acetylamino-4,4a-dihydro-5H-indeno-[1,2-c]pyridazin-3-one] here?
**A.** Its LD50 is 310 mg/kg.

**Q.** And the LD50 ([1]; po, os)?
**A.** The LD50 was greater than 1000 mg/kg.

**Q.** What about the “increase of protection as compared with ASA” value (“increase of protection” below) [2] of the same compound?
**A.** Its value is 20-30%.

**Q.** What about the “duration” value (Normotensive rats; 6.25 mg/kg) of the same compound?
**A.** The value was 3 h.

**Q.** What about the ΔBP sist (Normotensive rats; 6.25 mg/kg) of the same compound?
**A.** The ΔBP sist was -8.

**Q.** What about the “duration” value (Normotensive rats; 12.5 mg/kg) of the same compound?
**A.** Its value is 3 h.

**Q.** What about the ΔBP sist (Normotensive rats; 12.5 mg/kg) of the same compound?
**A.** The ΔBP sist was -26.

**Q.** And the “reducing the paw edema induced by carrageenin” value (“reducing the paw edema induced” below) [3]?
**A.** The value was “effective in reducing the paw edema”.

**Q.** And the “activity in paw edema relative to ASA” value [3]?
**A.** The value was 1.5-2 times.

**Q.** What about the hypotensive effect [4, 7] of the same compound?
**A.** The hypotensive effect was “more evident and prolonged hypotensive effect”.

**Q.** What about the “duration” value (SHR Rats; i.p., 50 mg/kg) of the same compound?
**A.** The value was greater than 4 h.

**Q.** And the ΔBP sist (SHR Rats; i.p., 50 mg/kg)?
**A.** Its ΔBP sist is -55.

**Q.** What about the “duration” value (SHR Rats; os, 1.56 mg/kg) of the same compound?
**A.** Its value is 1.5 h.

**Q.** And the ΔBP sist (SHR Rats; os, 1.56 mg/kg)?
**A.** The ΔBP sist was -18.

**Q.** What about the “duration” value (SHR Rats; os, 3.125 mg/kg) of the same compound?
**A.** The value was 3 h.

**Q.** What about the ΔBP sist (SHR Rats; os, 3.125 mg/kg) of the same compound?
**A.** The ΔBP sist was -25.

**Q.** And the “duration” value (SHR Rats; os, 6.25 mg/kg)?
**A.** The value was greater than 4 h.

**Q.** And the ΔBP sist (SHR Rats; os, 6.25 mg/kg)?
**A.** Its ΔBP sist is -50.

**Q.** What about the “duration” value (SHR Rats; os, 12.5 mg/kg) of the same compound?
**A.** Its value is 5.6 h.

**Q.** What about the ΔBP sist (SHR Rats; os, 12.5 mg/kg) of the same compound?
**A.** The ΔBP sist was -58.

**Q.** Which LD50 ([1]; ip) does the source give for `CC(=O)Nc1ccc2c(c1)CCC1CC(=O)NN=C21` (racemic) [BBR-1508, dl-8-acetylamino-4,4a,5,6-tetrahydro-2H-benzo(h)-cinnolin-3-one] here?
**A.** The LD50 was 360 mg/kg.

**Q.** What about the LD50 ([1]; po, os) of the same compound?
**A.** Its LD50 is greater than 1000 mg/kg.

**Q.** And the “increase of protection” value [2]?
**A.** The value was 40%.

**Q.** What about the ΔBP sist (Normotensive rats; 3.125 mg/kg) of the same compound?
**A.** Its ΔBP sist is “inactive”.

**Q.** What about the “duration” value (Normotensive rats; 6.25 mg/kg) of the same compound?
**A.** The value was 1.5 h.

**Q.** And the ΔBP sist (Normotensive rats; 6.25 mg/kg)?
**A.** Its ΔBP sist is -8.

**Q.** What about the “duration” value (Normotensive rats; 12.5 mg/kg) of the same compound?
**A.** Its value is 4 h.

**Q.** And the ΔBP sist (Normotensive rats; 12.5 mg/kg)?
**A.** The ΔBP sist was -20.

**Q.** What about the “duration” value (Normotensive rats; 25 mg/kg) of the same compound?
**A.** The value was 4 h.

**Q.** What about the ΔBP sist (Normotensive rats; 25 mg/kg) of the same compound?
**A.** The ΔBP sist was -48.

**Q.** And the “reducing the paw edema induced” value [3]?
**A.** Its value is “effective in reducing the paw edema”.

**Q.** What about the “activity in paw edema relative to ASA” value [3] of the same compound?
**A.** Its value is 1.5-2 times.

**Q.** What about the hypotensive effect [4, 7] of the same compound?
**A.** The hypotensive effect was “more evident and prolonged hypotensive effect”.

**Q.** What about the “duration” value (SHR Rats; i.p., 12.5 mg/kg) of the same compound?
**A.** Its value is 3 h.

**Q.** And the ΔBP sist (SHR Rats; i.p., 12.5 mg/kg)?
**A.** The ΔBP sist was -50.

**Q.** And the “duration” value (SHR Rats; i.p., 25 mg/kg)?
**A.** Its value is 3 h.

**Q.** And the ΔBP sist (SHR Rats; i.p., 25 mg/kg)?
**A.** The ΔBP sist was -90.

**Q.** What about the “duration” value (SHR Rats; os, 3.125 mg/kg) of the same compound?
**A.** The value was 2 h.

**Q.** And the ΔBP sist (SHR Rats; os, 3.125 mg/kg)?
**A.** The ΔBP sist was -30.

**Q.** And the “duration” value (SHR Rats; os, 6.25 mg/kg)?
**A.** Its value is 4 h.

**Q.** What about the ΔBP sist (SHR Rats; os, 6.25 mg/kg) of the same compound?
**A.** The ΔBP sist was -30.

**Q.** What about the “duration” value (SHR Rats; os, 12.5 mg/kg) of the same compound?
**A.** The value was 4.6 h.

**Q.** And the ΔBP sist (SHR Rats; os, 12.5 mg/kg)?
**A.** The ΔBP sist was -55.

**Q.** What about the “duration” value (SHR Rats; os, 25 mg/kg) of the same compound?
**A.** The value was 4.6 h.

**Q.** What about the ΔBP sist (SHR Rats; os, 25 mg/kg) of the same compound?
**A.** Its ΔBP sist is -65.

**Q.** With `CC(=O)Nc1ccc2c(c1)CCCC1CC(=O)NN=C21` (racemic) [BBR-1509, dl-8-acetylamino-2,4,4a,5,6,7-hexahydro-3H-benzo[6,7]-cyclohepten[1,2-c]-pyridazin-3-one] as the compound, how does the LD50 ([1]; ip) read?
**A.** The LD50 was greater than 1000 mg/kg.

**Q.** And the LD50 ([1]; po, os)?
**A.** The LD50 was greater than 1000 mg/kg.

**Q.** And the “protection against sudden death compared with ASA” value [2]?
**A.** Its value is “equiactive as acetylsalicylic acid (ASA)”.

**Q.** What about the “reducing the paw edema induced” value [3] of the same compound?
**A.** Its value is “inactive”.

**Q.** What about the hypotensive effect [4, 8] of the same compound?
**A.** The hypotensive effect was 5-8 mmHg.

**Q.** What about the “inhibiting platelet aggregation in vivo compared with ASA” value [5] of the same compound?
**A.** Its value is “at least equiactive as ASA”.

**Q.** And the “inhibiting platelet aggregation in vitro compared with ASA” value [6]?
**A.** The value was “at least equiactive as ASA”.

**Q.** Which results are given for `Nc1ccc2c(c1)CCC1CC(=O)NN=C21` (racemic) [BBR-1510, dl-8-amino-4,4a,5,6-tetrahydro-2H-benzo(h)-cinnolin-3-one]?
**A.** LD50 ([1]; ip): 610 mg/kg; LD50 ([1]; po, os): > 1000 mg/kg; increase of protection as compared with ASA [2]: 20-30%; duration (Normotensive rats; 12.5 mg/kg): > 6 h; ΔBP sist (Normotensive rats; 12.5 mg/kg): -28; reducing the paw edema induced by carrageenin [3]: effective in reducing the paw edema; activity in paw edema relative to ASA [3]: 1.5-2 times; hypotensive effect [4, 7]: more evident and prolonged hypotensive effect; duration (SHR Rats; i.p., 6.25 mg/kg): 1 h; ΔBP sist (SHR Rats; i.p., 6.25 mg/kg): -55; duration (SHR Rats; i.p., 12.5 mg/kg): > 4 h; ΔBP sist (SHR Rats; i.p., 12.5 mg/kg): -80; duration (SHR Rats; os, 1.56 mg/kg): 1 h; ΔBP sist (SHR Rats; os, 1.56 mg/kg): -48; duration (SHR Rats; os, 3.125 mg/kg): 2 h; ΔBP sist (SHR Rats; os, 3.125 mg/kg): -46; duration (SHR Rats; os, 6.25 mg/kg): 3.4 h; ΔBP sist (SHR Rats; os, 6.25 mg/kg): -40; duration (SHR Rats; os, 12.5 mg/kg): > 3 h; ΔBP sist (SHR Rats; os, 12.5 mg/kg): -60

**Q.** For `CCCCN1N=C2c3ccc(N)cc3CCC2CC1=O` (racemic) [BBR-1511], which LD50 ([1]; ip) is on record?
**A.** The LD50 was 1000 mg/kg.

**Q.** What about the LD50 ([1]; po, os) of the same compound?
**A.** The LD50 was greater than 1000 mg/kg.

**Q.** What about the “protection against sudden death compared with ASA” value [2] of the same compound?
**A.** The value was “equiactive as acetylsalicylic acid (ASA)”.

**Q.** What about the hypotensive effect [4, 8] of the same compound?
**A.** Its hypotensive effect is 5-8 mmHg.

**Q.** With `Nc1ccc2c(c1)CC1CC(=O)NN=C21` (racemic) [BBR-1512, dl-7-amino-4,4a-dihydro-5H-indeno[1,2-c]-pyridazin-3-one] as the compound, how does the LD50 ([1]; ip) read?
**A.** Its LD50 is 200 mg/kg.

**Q.** What about the LD50 ([1]; po, os) of the same compound?
**A.** The LD50 was 400 mg/kg.

**Q.** And the “increase of protection” value [2]?
**A.** Its value is 20-30%.

**Q.** For `Nc1ccc2c(c1)CCCC1CC(=O)NN=C21` (racemic) [BBR-1513, dl-9-amino-2,4,4a,5,6,7-hexahydro-3H-benzo-[6,7]-cyclohepten[1,2-c]-pyridazin-3-one], which LD50 ([1]; ip) is on record?
**A.** The LD50 was 483 mg/kg.

**Q.** What about the LD50 ([1]; po, os) of the same compound?
**A.** The LD50 was 700 mg/kg.

**Q.** And the “protection against sudden death compared with ASA” value [2]?
**A.** The value was “equiactive as acetylsalicylic acid (ASA)”.

**Q.** And the “reducing the paw edema induced” value [3]?
**A.** The value was “scarcely effective”.

**Q.** And the hypotensive effect [4, 8]?
**A.** The hypotensive effect was 5-8 mmHg.

**Q.** And the “inhibiting platelet aggregation in vivo compared with ASA” value [5]?
**A.** Its value is “at least equiactive as ASA”.

**Q.** And the “inhibiting platelet aggregation in vitro compared with ASA” value [6]?
**A.** Its value is “at least equiactive as ASA”.

**Q.** Which results are given for `O=C1CC2CCc3cc(NC(=O)CCl)ccc3C2=NN1` (racemic) [BBR-1514, dl-8-chloroacetylamino-4,4a,5,6-tetrahydro-2H-benzo(h)-cinnolin-3-one]?
**A.** LD50 ([1]; ip): > 1000 mg/kg; LD50 ([1]; po, os): > 1000 mg/kg; reducing the paw edema induced by carrageenin [3]: inactive; inhibiting platelet aggregation in vivo compared with ASA [5]: at least equiactive as ASA; inhibiting platelet aggregation in vitro compared with ASA [6]: at least equiactive as ASA

— patent US4692447A, “Tricyclic dihydropyridazinones and pharmaceutical compositions containing them” (Boehringer Biochemia Robin, S.p.A., priority 1984, dated 1987)
